Here are results for one compound from ChEMBL document CHEMBL3045351, “A 4-(o-methoxyphenyl)-2-aminothiazole: an anti-quorum sensing compound” (2013).

Experiment [1] has as its system Bacillus subtilis. In words: Induction of ROS production in Bacillus subtilis NCIM 2063 at MIC50 concentration after 3 hr by DCFH-DA-based fluorimetric analysis. The format is functional, organism-based.
Experiment [2] concerns Bacillus subtilis. The experiment is described as follows: Antibacterial activity against Bacillus subtilis NCIM 2063 after 12 hr by resazurin reduction assay. The format is functional. To be noted: NCIM 2063, 12 h. For orientation: The colour change of resazurin is a common sign of viable cells or microbes.
The subject of experiment [3] is Escherichia coli. In words: Antibacterial activity against Escherichia coli NCIM 2931 incubated for 12 hr followed by subculturing measured after 24 hr by colony counting method. The format is functional.
Experiment [4] concerns Pseudomonas aeruginosa. The experiment is described as follows: Antiquorum-sensing activity against Pseudomonas aeruginosa PAO1 cells assessed as decrease in biofilm formation at 25 to 100 ug/ml after 18 hr by crystal violet staining method. It is filed as functional, organism-based.
The subject of experiment [5] is Pseudomonas aeruginosa. The experiment is described as follows: Bactericidal activity against Pseudomonas aeruginosa PAO1 after 18 hr by crystal violet staining method. It is filed as functional, organism-based.
Experiment [6] has as its system Bacillus subtilis. In words: Induction of ROS production in Bacillus subtilis NCIM 2063 assessed as morphological changes at MIC50 concentration after 3 hr by scanning electron microscopic analysis. It is filed as functional, organism-based.
Experiment [7] concerns Pseudomonas aeruginosa. In words: Antiquorum-sensing activity against Pseudomonas aeruginosa PAO1 cells assessed as scattered cells at 25 ug/ml after 18 hr by scanning electron microscopic analysis. The format is functional, organism-based.
Experiment [8] has as its system Escherichia coli. In words: Antibacterial activity against Escherichia coli NCIM 2931 after 12 hr by resazurin reduction assay. To be noted: NCIM 2931, 12 h. It is filed as functional.
The subject of experiment [9] is Bacillus subtilis. The experiment is described as follows: Antibacterial activity against Bacillus subtilis NCIM 2063 incubated for 12 hr followed by subculturing measured after 24 hr by colony counting method. It is filed as functional.

Converted amounts (≈) assume the structure as drawn. The source made the active and inactive calls. The rule behind the calls is not given here.

Usually MIC stands for the least concentration at which growth counts as inhibited. High values mean weaker potency, low ones greater potency. As a reminder, the MBC is the lowest tested concentration that kills the bacteria rather than only halting them. Read a high MBC as less potent killing.

In the case of `COc1ccccc1-c1csc(N)n1`, the result with Bacillus subtilis [1] and in the experiment on Bacillus subtilis [6] was inactive. For the same compound, the MIC against Bacillus subtilis [2] was determined as 250 mg/L (≈ 1210 µM); against Escherichia coli [8], 500 mg/L (≈ 2420 µM). In addition, the MBC against Escherichia coli [3] was 500 mg/L (≈ 2420 µM); against Bacillus subtilis [9], 250 mg/L (≈ 1210 µM). Further, the result with Pseudomonas aeruginosa [4], with Pseudomonas aeruginosa [5] and with Pseudomonas aeruginosa [7] was Active.
